In paper PMC7472354, “Enhanced Antimicrobial Activity of N-Terminal Derivatives of a Novel Brevinin-1 Peptide from The Skin Secretion of Odorrana schmackeri” (Toxins, 2020):
In brackets after ≈: the same amount, converted by molar mass. Where two headings read alike, the source gives them in different places. Where a SMILES comes first, the peptide text is derived from it. Bridges are numbered along the chain shown (N, C = ends).

How the values were obtained:
[1] = system: Candida albicans (NCPF 1467); type: cell-based; conditions: for MBC: NCPF 1467, 18 h; for MIC: NCPF 1467, 24 h
Method: (§1) The minimal inhibitory concentrations (MICs) and minimum bactericidal concentrations (MBCs) were evaluated to determine the antimicrobial activity of synthetic peptides. The microorganisms employed in the study are two kinds of Gram-negative bacteria, Escherichia coli (NCTC 10418) and Pseudomonas aeruginosa (ATCC 27853), three kinds of Gram-positive bacteria, Staphylococcus aureus (NCTC 10788), Methicillin-resistant Staphylococcus aureus (MRSA, ATCC 12493) and Enterococcus faecalis (NCTC 12697) and a yeast, Candida albicans (NCPF 1467), as indicated previously. […] The sterilised broth medium was used as the positive control and the microorganism cultured in the medium only was treated as the negative control. […] The MBC results were defined as the lowest bactericidal concentrations of peptide. The antimicrobial activity of peptides was tested by monitoring the absorbance at 550 nm using an ELISA plate reader (Biolise BioTek EL808, Winooski, VT, USA).

[2] = system: Enterococcus faecalis (NCTC 12697); type: cell-based; conditions: for MBC: NCTC 12697, 18 h; for MIC: NCTC 12697, 24 h
Method: as §1

[3] = system: Escherichia coli (NCTC 10418); type: cell-based; conditions: for MBC: NCTC 10418, 18 h; for MIC: NCTC 10418, 24 h
Method: as §1

[4] = system: Methicillin-resistant Staphylococcus aureus (MRSA, ATCC 12493); type: cell-based; conditions: for MBC: ATCC 12493, 18 h; for MIC: ATCC 12493, 24 h
Method: as §1

[5] = system: Pseudomonas aeruginosa (ATCC 27853); type: cell-based; conditions: for MBC: ATCC 27853, 18 h; for MIC: ATCC 27853, 24 h
Method: as §1

[6] = system: Staphylococcus aureus (NCTC 10788); type: cell-based; conditions: for MBC: NCTC 10788, 18 h; for MIC: NCTC 10788, 24 h
Method: as §1

[7] = system: horse red blood cells; assay: Haemolysis assay and therapeutic index; conditions: 2% horse red blood cells in PBS, 2 h, 37 °C, absorbance 570 nm; best-fitted curve
Method: The haemolytic activity of synthetic peptides was determined using the horse red blood cells that were extracted from the de-fibroblast whole horse blood (TCS Biosciences Ltd. Buckingham, UK). […] Briefly, the red blood cells were harvested and washed using PBS until all broken red blood cells were removed. Then, a 2% cell suspension was prepared using PBS. The peptide concentrations were set as antimicrobial activity assay and mixed with the red blood cells in the microcentrifuge tubes. After a 2 h-incubation at 37 °C, the tubes were centrifuged and the suspension was transferred into a clear 96 well plate. The absorbance of released haemoglobin in the suspension was detected at 570 nm by a plate reader. Besides, the red blood cells treated with PBS and 1% Triton X-100 were used as the negative and positive controls, respectively. […] The therapeutic index (TI) was further determined as below:(1) TI=HC50/product of n MICsn,

[8] = system: Galleria mellonella larvae; assay: Toxicity to uninfected Galleria mellonella larvae; type: in vivo; conditions: uninfected G. mellonella larvae injected with drug; n = 30 per group; vancomycin 20 mg/kg
Method: The in vivo study of antimicrobial activity of the peptides was evaluated using the larvae of Galleria mellonella, which was described in the previous study with minor modifications. The larvae of Galleria mellonella (250 ± 25 mg; Livefood UK Ltd., Rooks Bridge, UK) were selected. The MRSA culture was prepared the same way as the antimicrobial activity assay. Then, MRSA cells were collected and washed, and further diluted to 10^8 CFU/mL in the saline. Ten µL of MRSA suspension was injected to the larvae and placed in a petri dish. After 2 h, the MRSA infected larvae were administrated with 10 µL of peptides (25 mg/kg, 50 mg/kg) by injection. Saline and vancomycin (20 mg/kg) (Sigma-Aldrich, UK) were used as the negative control and positive control, respectively. Each sample group contained 10 larvae, and the experiment was repeated three times (30 larvae for each group in total). The survival curves were achieved using Prism (Version 6.0; GraphPad Software Inc., San Diego, CA, USA) and the log-rank test was employed to analyze the significance between the different treatments and the controls. * (p < 0.05), ** (p < 0.01) and *** (p < 0.001) represent statistical significance.
Figure A9 Larvae without any MRSA infection were injected with peptides and vancomycin respectively to access the cytotoxicity of the drugs to larvae bodies. […] Effect of treatment of G. mellonella larvae (n = 30 for each group) without any infection and only treated with 5 µL vancomycin (20 mg/kg), OSd, OSe and OSf.

[9] = system: MRSA (ATCC 12493) biofilm; type: cell-based, Staphylococcus aureus
Method: (§2) The anti-biofilm effects of all synthetic peptides were evaluated, which was described in our previous study. The organisms, including S. aureus (NCTC 10788), E. coli (NCTC 10418), MRSA (ATCC 12493), E. faecalis (NCTC 12697) and P. aeruginosa (ATCC 27853), were investigated in this study. Gram-positive bacteria were cultured in the TSB broth and Gram-negative bacteria were cultured in the LB broth. The anti-biofilm effects were determined based on the MBIC and MBEC of all the peptides. For the determination of MBIC, 5 × 10^5 CFU/mL bacterial cultures were incubated with the peptides concentrations (ranging from 1 µM to 512 µM) for 24 h. The sterilised medium and bacterial suspension without any treatment were used as the negative controls and positive controls, respectively. After incubation, wells were rinsed, fixed, stained, washed and dissolved with phosphate buffer saline (PBS), methanol (90%, v/v), crystal violet (0.1%, w/v), sterile deionised water and acetic acid (30%, v/v), respectively. The absorbance of dissolved stain was measured at a 595 nm using a Synergy HT plate reader (Biotech, Minneapolis, MN, USA).
(§3) For the MBEC assay, the peptide concentrations were prepared as above. The bacteria were cultured in the 96 well plate for 24–48 h, which allowed the formation of mature biofilm in the plate. Then, the bacterial culture was removed from the plate. The biofilm was further washed to remove the planktonic bacteria using PBS. Then, the fresh broth that contained different peptide concentrations was added in the plate for incubation of 24 h at 37 °C. After incubation, the plate was stained by crystal violet as mentioned above. The definition of MBIC can be given when compared to the negative control group (≥90%, MBIC90; ≥50%, MBIC50). The definition of the MBEC can be given when compared to the negative control group (≥90%, MBEC90; ≥50%, MBEC50).

[10] = system: S. aureus (NCTC 10788) biofilm; type: cell-based, Staphylococcus aureus
Method: as §2, §3

[11] = system: E. faecalis (NCTC 12697) biofilm; type: cell-based, Enterococcus faecalis
Method: as §2, §3

[12] = system: E. coli (NCTC 10418) biofilm; type: cell-based, Escherichia coli
Method: as §2, §3

[13] = system: P. aeruginosa (ATCC 27853) biofilm; type: cell-based, Pseudomonas aeruginosa
Method: as §2, §3

[14] = system: MRSA; type: cell-based, Staphylococcus aureus; conditions: 24 h
Method: (§4) The minimal inhibitory concentrations (MICs) and minimum bactericidal concentrations (MBCs) were evaluated to determine the antimicrobial activity of synthetic peptides. The microorganisms employed in the study are two kinds of Gram-negative bacteria, Escherichia coli (NCTC 10418) and Pseudomonas aeruginosa (ATCC 27853), three kinds of Gram-positive bacteria, Staphylococcus aureus (NCTC 10788), Methicillin-resistant Staphylococcus aureus (MRSA, ATCC 12493) and Enterococcus faecalis (NCTC 12697) and a yeast, Candida albicans (NCPF 1467), as indicated previously. For antimicrobial assays, 5 × 10^5 CFU/mL of bacterial suspensions were incubated with the concentrations of the peptides (ranging from 1 µM to 512 µM) for 24 h at 37 °C. The sterilised broth medium was used as the positive control and the microorganism cultured in the medium only was treated as the negative control. […] The MBC results were defined as the lowest bactericidal concentrations of peptide. The antimicrobial activity of peptides was tested by monitoring the absorbance at 550 nm using an ELISA plate reader (Biolise BioTek EL808, Winooski, VT, USA).
(§5) The activity of peptides in the different environmental conditions including different concentrations of NaCl (50, 100 and 150 mM) and MgCl2 (0.5, 1 and 2 mM), pH (6, 7 and 8), temperature (50 °C, 75 °C and 100 °C) and 10% fetal bovine serum (FBS) solution, was evaluated using the broth microdilution assay as described in the antimicrobial activity assay. For the stability test of peptides in the presence of salt, pH and serum, these conditions were adjusted in the fresh medium that was further used to dilute the bacteria suspension. The peptides were also dissolved in such broth and mixed with the bacteria suspension in the 96 well plate. For the thermal stability test, the peptides were dissolved in the water and incubated at different temperature for 15 min before dosing in the plate. The sterilised broth with corresponding conditions was used as the positive controls, and the bacteria suspension without any treatment was used as the negative controls.

[15] = system: S. aureus; type: cell-based, Staphylococcus aureus; conditions: 24 h
Method: as §4, §5

[16] = system: E. faecalis; type: cell-based, Enterococcus faecalis; conditions: 24 h
Method: as §4, §5

[17] = system: C. albicans; type: cell-based, Candida albicans; conditions: 24 h
Method: as §4, §5

[18] = system: E. coli; type: cell-based, Escherichia coli; conditions: 24 h
Method: as §4, §5

[19] = system: P. aeruginosa; type: cell-based, Pseudomonas aeruginosa; conditions: 24 h
Method: as §4, §5

CC[C@H](C)[C@H](NC(=O)[C@H](CCCCN)NC(=O)[C@@H]1CCCN1C(=O)[C@H](CC(C)C)NC(=O)[C@@H](N)Cc1ccccc1)C(=O)N[C@@H](CC(C)C)C(=O)N[C@@H](CCCCN)C(=O)N[C@H](C(=O)N[C@@H](C)C(=O)N[C@@H](C)C(=O)N[C@@H](CCCCN)C(N)=O)C(C)C [OSc] (H-FLPKILKVAAK-NH2)
MBC [1]: > 512 µM | MIC [1]: 256 µM (≈ 314 µg/mL) | MBC [2]: > 512 µM | MIC [2]: > 512 µM | MBC [3]: > 512 µM | MIC [3]: > 512 µM | MBC [4]: > 512 µM | MIC [4]: > 512 µM | MBC [5]: > 512 µM | MIC [5]: > 512 µM | MBC [6]: > 512 µM | MIC [6]: 256 µM (≈ 314 µg/mL) | HC50 (concentration causing 50% haemolysis of the red blood cells) [7]: >512 µM

CN[C@H](CC(C)C)C(=O)N[C@H]1C(=O)N[C@@H](CC(N)=O)C(=O)N[C@H]2C(=O)N[C@H]3C(=O)N[C@H](C(=O)N[C@H](C(=O)O)c4cc(O)cc(O)c4-c4cc3ccc4O)[C@H](O)c3ccc(c(Cl)c3)Oc3cc2cc(c3O[C@@H]2O[C@H](CO)[C@@H](O)[C@H](O)[C@H]2O[C@H]2C[C@](C)(N)[C@H](O)[C@H](C)O2)Oc2ccc(cc2Cl)[C@H]1O [vancomycin, reference compound]
toxicity to larvae without MRSA infection [8]: No noticeable cytotoxicity

CC[C@H](C)[C@H](NC(=O)CNC(=O)[C@@H]1CCCN1C(=O)[C@H](CC(C)C)NC(=O)[C@@H](N)Cc1ccccc1)C(=O)N[C@@H](CC(C)C)C(=O)N[C@@H](CCCCN)C(=O)N[C@H](C(=O)N[C@@H](C)C(=O)N[C@@H](C)C(=O)N[C@@H](CC(N)=O)C(=O)N[C@H](C(=O)N[C@H](C(=O)N1CCC[C@H]1C(=O)NCC(=O)N[C@H](C(=O)N[C@H](C(=O)N[C@H]1CSSC[C@@H](C(=O)O)NC(=O)[C@H](CCCCN)NC(=O)[C@H](CCCCN)NC(=O)[C@H]([C@@H](C)O)NC(=O)[C@H]([C@@H](C)CC)NC(=O)[C@H](C)NC1=O)[C@@H](C)CC)C(C)C)C(C)C)C(C)C)C(C)C [Brevinin-1OS] (H-FLPGILKVAANVVPGVICAITKKC-OH; disulfide 18-24)
MBC [1]: 64 µM (≈ 157 µg/mL) | MIC [1]: 8 µM (≈ 19.6 µg/mL) | MBC [2]: 16 µM (≈ 39.2 µg/mL) | MIC [2]: 8 µM (≈ 19.6 µg/mL) | MBC [3]: > 512 µM | MIC [3]: 128 µM (≈ 314 µg/mL) | MBC [4]: 32 µM (≈ 78.5 µg/mL) | MIC [4]: 32 µM (≈ 78.5 µg/mL) | MBC [5]: > 512 µM | MIC [5]: 256 µM (≈ 628 µg/mL) | MBC [6]: 16 µM (≈ 39.2 µg/mL) | MIC [6]: 4 µM (≈ 9.81 µg/mL) | MBEC50 [9]: 64 µM | MBEC90 [9]: 256 µM | MBIC50 ([9]; ATCC 12493, 24 h): 8 µM | MBIC90 ([9]; ATCC 12493, 24 h): 32 µM | MBEC50 [10]: 32 µM | MBEC90 [10]: 64 µM | MBIC50 ([10]; NCTC 10788, 24 h): 4 µM | MBIC90 ([10]; NCTC 10788, 24 h): 4 µM | MBEC50 [11]: 256 µM | MBEC90 [11]: > 512 µM | MBIC50 ([11]; NCTC 12697, 24 h): 32 µM | MBIC90 ([11]; NCTC 12697, 24 h): 64 µM | MBEC50 [12]: > 512 µM | MBEC90 [12]: > 512 µM | MBIC50 ([12]; NCTC 10418, 24 h): 128 µM | MBIC90 ([12]; NCTC 10418, 24 h): 128 µM | MBEC50 [13]: 512 µM | MBEC90 [13]: 512 µM | MBIC50 ([13]; ATCC 27853, 24 h): 256 µM | MBIC90 ([13]; ATCC 27853, 24 h): 256 µM | MIC ([14]; pH 6): 64 µM (≈ 157 µg/mL) | MIC ([14]; pH 7): 8 µM (≈ 19.6 µg/mL) | MIC ([14]; pH 8): 4 µM (≈ 9.81 µg/mL) | MIC ([15]; pH 6): 8 µM (≈ 19.6 µg/mL) | MIC ([15]; pH 7): 4 µM (≈ 9.81 µg/mL) | MIC ([15]; pH 8): 4 µM (≈ 9.81 µg/mL) | MIC ([16]; pH 6): 128 µM (≈ 314 µg/mL) | MIC ([16]; pH 7): 32 µM (≈ 78.5 µg/mL) | MIC ([16]; pH 8): 16 µM (≈ 39.2 µg/mL) | MIC ([17]; pH 6): 64 µM (≈ 157 µg/mL) | MIC ([17]; pH 7): 16 µM (≈ 39.2 µg/mL) | MIC ([17]; pH 8): 16 µM (≈ 39.2 µg/mL) | MIC ([18]; pH 6): 32 µM (≈ 78.5 µg/mL) | MIC ([18]; pH 7): 32 µM (≈ 78.5 µg/mL) | MIC ([18]; pH 8): 128 µM (≈ 314 µg/mL) | MIC ([19]; pH 6): 128 µM (≈ 314 µg/mL) | MIC ([19]; pH 7): 256 µM (≈ 628 µg/mL) | MIC ([19]; pH 8): 256 µM (≈ 628 µg/mL)
